Test results as given in article PMC9064382 (RSC Advances, 2019).

Columns and labels:
hOATP1B3 = target: T1, hOATP1B3 (Homo sapiens, UniProt Q9NPD5); experiment: Uptake of aconitum alkaloids in hOATP1B3-transfected HEK293 cells vs mock; type: in vitro ADME; settings: 10 μm, 2 min
T1 sequence (Q9NPD5 1-702): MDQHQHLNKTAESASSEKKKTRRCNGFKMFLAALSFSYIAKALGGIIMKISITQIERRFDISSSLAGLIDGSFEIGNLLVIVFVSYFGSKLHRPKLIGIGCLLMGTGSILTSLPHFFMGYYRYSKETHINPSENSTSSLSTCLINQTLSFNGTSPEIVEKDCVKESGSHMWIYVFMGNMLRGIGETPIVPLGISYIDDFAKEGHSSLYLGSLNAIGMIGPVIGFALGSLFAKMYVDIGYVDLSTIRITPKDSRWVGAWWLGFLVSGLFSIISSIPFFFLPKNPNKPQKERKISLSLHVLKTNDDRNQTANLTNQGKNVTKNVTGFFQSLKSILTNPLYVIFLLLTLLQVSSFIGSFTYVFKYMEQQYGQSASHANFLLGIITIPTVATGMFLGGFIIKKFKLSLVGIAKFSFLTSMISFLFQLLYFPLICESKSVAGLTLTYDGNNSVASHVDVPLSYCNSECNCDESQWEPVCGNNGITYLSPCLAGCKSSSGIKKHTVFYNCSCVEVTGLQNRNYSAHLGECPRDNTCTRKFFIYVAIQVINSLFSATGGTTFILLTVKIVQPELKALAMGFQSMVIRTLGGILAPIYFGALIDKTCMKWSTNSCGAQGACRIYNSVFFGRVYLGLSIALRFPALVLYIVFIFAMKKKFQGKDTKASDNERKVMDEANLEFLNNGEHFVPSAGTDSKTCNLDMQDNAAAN

hOCT1 = target: T2, hOCT1 (Homo sapiens, UniProt O15245); experiment: Uptake of aconitum alkaloids in hOCT1-transfected cells vs mock; type: in vitro ADME; settings: 10 μm, 5 min
T2 sequence (O15245 1-554): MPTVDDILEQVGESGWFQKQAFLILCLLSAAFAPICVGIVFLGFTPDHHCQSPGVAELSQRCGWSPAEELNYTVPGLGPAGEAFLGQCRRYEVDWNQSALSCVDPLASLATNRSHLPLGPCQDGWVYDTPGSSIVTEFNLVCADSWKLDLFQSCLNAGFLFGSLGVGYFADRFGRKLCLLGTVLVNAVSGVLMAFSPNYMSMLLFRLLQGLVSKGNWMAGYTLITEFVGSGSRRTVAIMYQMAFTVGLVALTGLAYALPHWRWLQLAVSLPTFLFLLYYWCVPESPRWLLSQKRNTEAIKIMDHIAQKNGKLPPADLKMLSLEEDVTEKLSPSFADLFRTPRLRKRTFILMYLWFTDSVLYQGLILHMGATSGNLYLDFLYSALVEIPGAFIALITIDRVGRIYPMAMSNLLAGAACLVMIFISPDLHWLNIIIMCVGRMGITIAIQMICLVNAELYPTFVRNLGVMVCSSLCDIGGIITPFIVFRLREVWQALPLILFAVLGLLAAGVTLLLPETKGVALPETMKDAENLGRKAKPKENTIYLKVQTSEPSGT

[1] = type: in vivo, Sprague-Dawley (SD) rats; settings: aconitine 0.5 mg kg^−1 oral; pretreatment 15 min before; n = 6
[2] = type: in vivo, Sprague-Dawley (SD) rats; settings: aconitine 0.5 mg kg^−1 oral; pretreatment 15 min before; n = 6; remark: listed apart in the source
OCT2 = settings: read-out: Ki, competitive inhibition of OCT2; TEA probe substrate; cited from earlier work

For `CCN1C[C@]2(COC)[C@H](O)C[C@H](OC)[C@@]34[C@@H]5C[C@@]6(O)[C@H](OC(=O)c7ccccc7)[C@@H]5[C@@](OC(C)=O)([C@@H]([C@H](OC)[C@H]23)[C@@H]14)[C@@H](O)[C@@H]6OC` [aconitine], the “uptake in hOATP1B3-transfected cells, adjusted by protein concentration” value (hOATP1B3; HEK293-hOATP1B3) was 344 pmol mg^−1 protein, the “concentration in hOATP1B3-transfected cells, fold of HEK293 mock cells” value (hOATP1B3; HEK293-hOATP1B3 vs mock) was 1.35 fold and the “concentration in HEK293–hOCT1, fold higher than control” value (hOCT1) was “roughly 1.9 fold”. For the same compound, the “AUC(0–2 h) of aconitine in rat liver” value [1] was 100.3 ± 8.9 ng/h/g, the “AUC(0–2 h) of aconitine in rat kidneys” value [2] was 60.5 ± 6.8 ng/h/g and the Ki (OCT2) was 145 µM.
